Reference: article PMC6562844, “A Basic Study of Photodynamic Therapy with Glucose-Conjugated Chlorin e6 Using Mammary Carcinoma Xenografts” (Cancers, 2019)

What was measured:
[1] = General physical examination and blood analysis in dogs; format: in vivo, healthy beagle dogs; details: for ALP / ALT / AST / BUN / Cre / GGT / Glu: Post (1 day after administration)
Method: The animal protocol using healthy beagle dogs was approved by the Animal Research Committee of the Tottori University (project number: 17-T-3). For the pharmacokinetic crossover study, 6, 3, and 1 healthy beagle dogs were intravenously administered G-Ce6 at a dose of 2, 5, and 20 mg/kg, respectively. The ages of the healthy dogs (3 males and 3 females) ranged from 6–12 years old (mean and median, 8.6 and 7.5 years, respectively); the dogs weighed 8.7–11.2 kg (mean and median, 10.2 and 10.5 kg, respectively).
A general physical examination was performed on all dogs before and after PDT. Serum biochemistry analysis of glucose (Glu), AST, ALT, alkaline phosphatase (ALP), γ-glutamyltranspeptidase (GGT), blood urea nitrogen, and creatinine (Cre) was also performed for all dogs immediately before and 1 day after G-Ce6 administration.

SNP cells [2] = assay: Reactive oxygen species assay (Muse Oxidative Stress kit); format: cell-based, canine; details: 8 μg/mL, 4 h after PDT
Method: SNP cells were seeded at a density of 5 × 10^4 cells/well in 35-mm petri dishes containing 2 mL culture medium. Following 24 h of incubation, the cells were divided into the following groups: control (no treatment); laser (irradiated with a light dose of 15 J/cm^2); G-Ce6 (treated with 8 μg/mL G-Ce6); and PDT (treated with 8 μg/mL G-Ce6, and then irradiated with a light dose of 1, 5, or 15 J/cm^2).
Reactive oxygen species (ROS) generation was assessed 4 h after laser irradiation using the Muse Oxidative Stress kit (EMD Millipore Co.), according to the manufacturer’s protocols; this kit determines the percentage of cells that are negative (healthy cells) and positive for ROS (cells containing ROS).
Single-cell suspensions were then loaded onto the Muse Cell Analyzer (EMD Millipore Co.).

SNP cells [3] = assay: Effect of a pan-caspase inhibitor on G-Ce6-PDT-induced cell death; format: cell-based, canine; details: 8 μg/mL G-Ce6; 10 μM Z-VAD-FMK; 5 J/cm^2
Method: SNP cells were incubated with 8 μg/mL G-Ce6 for 24 h in the presence (10 μM) or absence of Z-VAD-FMK (Medical & Biological Laboratories Co. Ltd., Aichi, Japan), which is a pan-caspase inhibitor. After washing with fresh media, the cells were irradiated with 650-nm laser light (10 mW/cm^2, 5 J/cm^2) emitted by a semiconductor laser, using an optical fiber with a microlens delivery attachment. Apoptosis was assessed at 4 h after laser irradiation using the Muse Annexin V and Dead Cell Assay kit.

For `CCC1=C(C)c2cc3[nH]c(cc4nc(c(CC(=O)OC)c5[nH]c(cc1n2)c(C)c5C(=O)OC)[C@@H](CCC(=O)OC)[C@@H]4C)c(C)c3C(C)OCCCS[C@@H]1O[C@H](CO)[C@@H](O)[C@H](O)[C@H]1O` (stereo partly drawn) [G-Ce6, Methyl (7S,8S)-18-ethyl-5-(2-methoxy-2-oxoethyl)-7-(3-methoxy-3-oxopropyl)-2,8,12,17-tetramethyl-13-(1-(3-(((2S,3R,4S,5S,6R)-3,4,5-trihydroxy-6-(hydroxymethyl)tetrahydro-2H-pyran-2-yl)thio)propoxy)ethyl)-7H,8H-porphyrin-3-carboxylate], the “Changes in serum biochemical parameters” value ([1]; 2 mg/kg i.v.) was “No significant changes”, the “Major skin photosensitivity or acute toxicity (vomiting, diarrhea, salivation)” value ([1]; 2 mg/kg i.v.) was “no evidence” and the “Tolerability in safety examination” value ([1]; 2 mg/kg i.v.) was “well tolerated”. For the same molecule, the ALP ([1]; 2 mg/kg i.v.) was 154 ± 59.69 U/L, the ALT ([1]; 2 mg/kg i.v.) was 40 ± 7.17 U/L and the AST ([1]; 2 mg/kg i.v.) was 32 ± 4.72 U/L. The BUN ([1]; 2 mg/kg i.v.) was 15.8 ± 4.20 mg/dL, the Cre ([1]; 2 mg/kg i.v.) was 0.5 ± 0.09 mg/dL and the GGT ([1]; 2 mg/kg i.v.) was 1.5 ± 2.35 U/L. The Glu ([1]; 2 mg/kg i.v.) was 99.5 ± 17.85 mg/dL, the “Changes in serum biochemical parameters” value ([1]; 5 mg/kg i.v.) was “no significant changes” and the “Side effects during administration” value ([1]; 5 mg/kg i.v.) was “Nausea was observed”. It also gave an ALP ([1]; 5 mg/kg i.v.) of 141.0 ± 47.04 U/L, an ALT ([1]; 5 mg/kg i.v.) of 59.0 ± 9.52 U/L and an AST ([1]; 5 mg/kg i.v.) of 31.0 ± 10.47 U/L. It also gave a BUN ([1]; 5 mg/kg i.v.) of 13.4 ± 5.05 mg/dL, a Cre ([1]; 5 mg/kg i.v.) of 0.5 ± 0.13 mg/dL and a GGT ([1]; 5 mg/kg i.v.) of 5.0 ± 1.63 U/L. For the same molecule, the Glu ([1]; 5 mg/kg i.v.) was 96.0 ± 10.88 mg/dL, the “Levels of AST and ALT in blood” value ([1]; 20 mg/kg i.v.) was “Increases” and the “Side effects during administration” value ([1]; 20 mg/kg i.v.) was “vomiting and weakness”. For the same molecule, the ALP ([1]; 20 mg/kg i.v.) was 134.0 U/L, the ALT ([1]; 20 mg/kg i.v.) was 135.0 U/L and the AST ([1]; 20 mg/kg i.v.) was 55.0 U/L. The BUN ([1]; 20 mg/kg i.v.) was 8.6 mg/dL, the Cre ([1]; 20 mg/kg i.v.) was 0.5 mg/dL and the GGT ([1]; 20 mg/kg i.v.) was 14.0 U/L. The Glu ([1]; 20 mg/kg i.v.) was 107.0 mg/dL, the Toxic dose level ([1]; i.v.) was 20 mg/kg and the “Optimal dose, which did not cause any adverse effects” value ([1]; i.v., based on pharmacokinetics and safety examination) was 2 mg/kg. The “Percentage of ROS (+) cells compared with control group” value (SNP cells [2]; 5 J/cm^2, p < 0.01) was “significantly higher”, the “Percentage of ROS (+) cells” value (SNP cells [2]; 15 J/cm^2) was “remarkably decreased” and the “G-Ce6-PDT-induced apoptosis and cell death in the presence of Z-VAD-FMK” value (SNP cells [3]) was “could not be blocked”.
